The results in this text go back to US8129371B2, “Thienopyrimidine and pyrazolopyrimidine compounds and their use as mTOR kinase and PI3 kinase inhibitors” (Wyeth LLC, priority 2007, dated 2012).

The test system of one experiment is prostate line LNCap. Nature of the experiment: In vitro cell culture growth assay (MTS), LNCap. Type of experiment: cell-based. The conditions noted are these: Homo sapiens, LNCaP, 72 h, LNCap cells, three days after drug treatment. In short, it runs like this: (§1)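 Inhibitors were added one day after plating, and viable cells were measured 3 days later by MTS conversion (absorbance 490 nm).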

Another experiment concerns breast line MDA468. Nature of the experiment: In vitro cell culture growth assay (MTS), MDA468. Type of experiment: cell-based. The conditions noted are these: Homo sapiens, 72 h, MDA468 cells, three days after drug treatment. In short, it runs like this: as §1
In experiment [1] the target is T1, PI3K (Homo sapiens, UniProt P42336).
T1 construct: PI3 Kinase α IC50; other: PI3 Kinase α; other: PI3 Kinase α isoform, fluorescence polarization
Nature of the experiment: Fluorescence polarization assay for PI3K. The conditions noted are these: PI3 Kinase α; read-out: PI3 Kinase α IC50. Type of experiment: biochemical. In short, it runs like this:
(§2)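 PI3K was preincubated with compound (final DMSO 1%), and the reaction was started with PIP2/ATP substrate and run 30–60 min. It was stopped with a detector mix giving 10 nM red probe and 70 nM GST-GRP.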
On the technique in general: Polarisation of emitted light reports the rotation of a fluorescent probe.

For experiment [2], the target named is T2, PI3K (Homo sapiens, UniProt P48736).
T2 construct: PI3 Kinase γ IC50; other: PI3 Kinase γ; other: PI3 Kinase γ isoform, fluorescence polarization
Nature of the experiment: Fluorescence polarization assay for PI3K. Type of experiment: biochemical. The conditions noted are these: PI3 Kinase γ; read-out: PI3 Kinase γ IC50. In short, it runs like this:
as §2

The target of the next experiment is T3, Human mTOR (FLAG-TOR) (Homo sapiens, UniProt P42345).
T3 construct: FLAG
The experiment can be described thus: Human mTOR kinase assay with purified enzyme, DELFIA format. Type of experiment: biochemical. The method in brief: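 Purified FLAG-mTOR in HEPES pH 7.4 buffer with 10 mM MnCl2 was preincubated with inhibitor and reacted 2 h at room temperature with His6-S6K substrate, then stopped with EDTA/EGTA. Phospho-T389 S6K detected by DELFIA with Eu-labelled antibody (40 ng/mL) after plate capture; inhibition computed from signal.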

T1 sequence (P42336 whole entry, canonical isoform): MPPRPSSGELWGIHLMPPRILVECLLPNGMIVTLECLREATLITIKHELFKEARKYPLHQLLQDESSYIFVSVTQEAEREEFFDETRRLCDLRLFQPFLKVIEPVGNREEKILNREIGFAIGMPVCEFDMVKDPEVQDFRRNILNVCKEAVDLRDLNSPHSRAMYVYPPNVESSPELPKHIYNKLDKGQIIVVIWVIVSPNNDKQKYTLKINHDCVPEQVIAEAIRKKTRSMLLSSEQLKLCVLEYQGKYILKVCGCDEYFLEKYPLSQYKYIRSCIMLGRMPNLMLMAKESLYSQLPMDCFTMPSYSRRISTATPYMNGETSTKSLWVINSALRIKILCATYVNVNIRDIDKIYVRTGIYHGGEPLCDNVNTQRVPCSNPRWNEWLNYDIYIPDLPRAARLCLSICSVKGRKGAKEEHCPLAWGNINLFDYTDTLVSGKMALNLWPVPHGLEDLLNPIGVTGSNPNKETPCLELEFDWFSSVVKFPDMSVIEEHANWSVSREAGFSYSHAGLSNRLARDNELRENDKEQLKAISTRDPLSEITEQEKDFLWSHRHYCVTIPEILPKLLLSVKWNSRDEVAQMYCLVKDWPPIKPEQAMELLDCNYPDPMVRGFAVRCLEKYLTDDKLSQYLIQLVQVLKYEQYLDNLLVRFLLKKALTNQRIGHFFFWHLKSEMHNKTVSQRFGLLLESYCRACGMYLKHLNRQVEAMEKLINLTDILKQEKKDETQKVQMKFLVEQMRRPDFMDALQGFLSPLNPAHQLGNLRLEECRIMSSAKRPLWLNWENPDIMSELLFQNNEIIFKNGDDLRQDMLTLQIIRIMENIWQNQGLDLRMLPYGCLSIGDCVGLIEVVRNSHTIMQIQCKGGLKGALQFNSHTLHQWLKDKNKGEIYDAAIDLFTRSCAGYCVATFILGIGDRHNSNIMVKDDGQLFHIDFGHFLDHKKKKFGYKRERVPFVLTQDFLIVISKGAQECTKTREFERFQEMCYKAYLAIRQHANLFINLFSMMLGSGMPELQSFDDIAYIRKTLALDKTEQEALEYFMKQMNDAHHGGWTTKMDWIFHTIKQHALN
T2 sequence (P48736 whole entry, canonical isoform): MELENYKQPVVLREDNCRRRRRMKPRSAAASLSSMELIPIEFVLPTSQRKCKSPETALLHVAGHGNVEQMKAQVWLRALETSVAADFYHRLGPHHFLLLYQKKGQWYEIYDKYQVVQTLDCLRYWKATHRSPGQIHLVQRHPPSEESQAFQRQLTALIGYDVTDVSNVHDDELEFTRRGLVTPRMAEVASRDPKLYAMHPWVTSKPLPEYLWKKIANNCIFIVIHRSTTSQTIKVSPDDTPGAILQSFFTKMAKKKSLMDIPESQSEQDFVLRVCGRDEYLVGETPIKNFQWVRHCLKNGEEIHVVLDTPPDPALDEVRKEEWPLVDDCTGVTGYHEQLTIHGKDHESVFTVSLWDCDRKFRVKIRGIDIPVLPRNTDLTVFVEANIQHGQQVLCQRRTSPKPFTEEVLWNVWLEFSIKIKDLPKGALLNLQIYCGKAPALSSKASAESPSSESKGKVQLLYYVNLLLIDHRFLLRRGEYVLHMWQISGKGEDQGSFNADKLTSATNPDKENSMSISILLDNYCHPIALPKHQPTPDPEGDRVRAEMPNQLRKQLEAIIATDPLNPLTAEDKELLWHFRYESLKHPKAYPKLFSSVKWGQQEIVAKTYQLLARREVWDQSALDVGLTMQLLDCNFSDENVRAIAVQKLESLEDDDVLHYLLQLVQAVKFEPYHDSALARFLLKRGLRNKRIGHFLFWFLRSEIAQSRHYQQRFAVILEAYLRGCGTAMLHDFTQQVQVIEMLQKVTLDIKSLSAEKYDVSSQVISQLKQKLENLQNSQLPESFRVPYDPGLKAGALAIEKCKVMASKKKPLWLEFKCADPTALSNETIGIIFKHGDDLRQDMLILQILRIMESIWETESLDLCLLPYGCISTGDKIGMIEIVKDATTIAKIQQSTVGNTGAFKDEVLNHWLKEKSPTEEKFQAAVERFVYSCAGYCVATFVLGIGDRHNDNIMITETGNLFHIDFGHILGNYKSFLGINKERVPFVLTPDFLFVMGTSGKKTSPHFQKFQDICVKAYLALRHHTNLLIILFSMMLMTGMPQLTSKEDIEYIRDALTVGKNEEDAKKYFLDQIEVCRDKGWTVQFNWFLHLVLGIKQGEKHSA

Usually IC50 stands for the concentration that gives 50% inhibition. For `CC(C)(C)OC(=O)N1CCC(n2ncc3c(N4CC5CCC(C4)O5)nc(-c4ccc(NC(=O)Nc5ccncc5)cc4)nc32)CC1` [Example 25, tert-butyl 4-[4-(8-oxa-3-azabicyclo[3.2.1]oct-3-yl)-6-{4-[(pyridin-4-ylcarbamoyl)amino]phenyl}-1H-pyrazolo[3,4-d]pyrimidin-1-yl]piperidine-1-carboxylate], the IC50 in the experiment with prostate line LNCap turned out to be 0.038 µM; in the experiment on breast line MDA468, 0.07 µM; on PI3K [1] it was 0.595 µM; on PI3K [2] it was 1.64 µM; against Human mTOR (FLAG-TOR), 0.00047 µM.
The corresponding values for `CNC(=O)Nc1ccc(-c2nc(N3CC4CCC(C3)O4)c3cnn(C4CCN(CC(F)(F)F)CC4)c3n2)cc1` [Example 26, 1-methyl-3-(4-{4-(8-oxa-3-azabicyclo[3.2.1]oct-3-yl)-1-[1-(2,2,2-trifluoroethyl)piperidin-4-yl]-1H-pyrazolo[3,4-d]pyrimidin-6-yl}phenyl)urea] are 0.027 µM, 0.19 µM, 1.28 µM, more than 10 µM and 0.0011 µM.
Take `CNC(=O)Nc1ccc(-c2nc(N3CC4CCC(C3)O4)c3cnn(C4CCN(Cc5cccnc5)CC4)c3n2)cc1` [Example 27, 1-methyl-3-(4-{4-(8-oxa-3-azabicyclo[3.2.1]oct-3-yl)-1-[1-(pyridin-3-ylmethyl)piperidin-4-yl]-1H-pyrazolo[3,4-d]pyrimidin-6-yl}phenyl)urea]: the IC50 in the experiment with prostate line LNCap was 0.0008 µM; in the experiment on breast line MDA468 it was 0.027 µM; on PI3K [1], 0.677 µM; at PI3K [2], more than 10 µM; at Human mTOR (FLAG-TOR) it was 0.00047 µM.
In the case of `CCNC(=O)Nc1ccc(-c2nc(N3CC4CCC(C3)O4)c3cnn(C4CCNCC4)c3n2)cc1` [Example 28, 1-ethyl-3-{4-[4-(8-oxa-3-azabicyclo[3.2.1]oct-3-yl)-1-piperidin-4-yl-1H-pyrazolo[3,4-d]pyrimidin-6-yl]phenyl}urea], the IC50 is 0.79 µM in the experiment on prostate line LNCap; 1.3 µM in the experiment with breast line MDA468; 2.16 µM at PI3K [1]; 9 µM on PI3K [2]; 0.0018 µM at Human mTOR (FLAG-TOR).
With `O=C(Nc1ccccc1)Nc1ccc(-c2nc(N3CC4CCC(C3)O4)c3cnn(C4CCNCC4)c3n2)cc1` [Example 29, 1-{4-[4-(8-oxa-3-azabicyclo[3.2.1]oct-3-yl)-1-piperidin-4-yl-1H-pyrazolo[3,4-d]pyrimidin-6-yl]phenyl}-3-phenylurea], the half-inhibitory concentration (IC50) in the experiment with prostate line LNCap is 0.1 µM; in the experiment on breast line MDA468 it was 0.28 µM; at PI3K [1], 0.273 µM; on PI3K [2], 2.31 µM; against Human mTOR (FLAG-TOR), 0.0023 µM.
The corresponding values for `Oc1ccc(Nc2nc(N3CC4CCC(C3)O4)c3cnn(C4CCN(Cc5ccccc5)CC4)c3n2)cc1` [Example 30, 4-{[1-(1-benzylpiperidin-4-yl)-4-(8-oxa-3-azabicyclo[3.2.1]oct-3-yl)-1H-pyrazolo[3,4-d]pyrimidin-6-yl]amino}phenol] are 2.8 µM, 7.6 µM, 2.45 µM, more than 10 µM and 0.26 µM.
On the same counts, the results for `CCNC(=O)Nc1ccc(-c2nc(N3CC4CCC(C3)O4)c3cnn(C4CCN(C(=O)OCC)CC4)c3n2)cc1` [Example 31, ethyl 4-[6-{4-[(ethylcarbamoyl)amino]phenyl}-4-(8-oxa-3-azabicyclo[3.2.1]oct-3-yl)-1H-pyrazolo[3,4-d]pyrimidin-1-yl]piperidine-1-carboxylate] are 0.0008 µM, 0.07 µM, 1.89 µM, 11 µM and 0.00036 µM.
For the molecule `CCOC(=O)N1CCC(n2ncc3c(N4CC5CCC(C4)O5)nc(-c4ccc(NC(=O)NCCF)cc4)nc32)CC1` [Example 32, ethyl 4-[6-(4-{[(2-fluoroethyl)carbamoyl]amino}phenyl)-4-(8-oxa-3-azabicyclo[3.2.1]oct-3-yl)-1H-pyrazolo[3,4-d]pyrimidin-1-yl]piperidine-1-carboxylate], the 50% inhibitory concentration (IC50) with prostate line LNCap came out at 0.009 µM; in the experiment on breast line MDA468, 0.21 µM; on PI3K [1], 3.32 µM; at PI3K [2] it was 9.5 µM; against Human mTOR (FLAG-TOR) it was 0.00033 µM.
